Source: the Kinase Knowledgebase extract (Sharma et al. 2016)

target: EGFR (human) (UniProt P00533)
Sequence (P00533 whole entry, looked up): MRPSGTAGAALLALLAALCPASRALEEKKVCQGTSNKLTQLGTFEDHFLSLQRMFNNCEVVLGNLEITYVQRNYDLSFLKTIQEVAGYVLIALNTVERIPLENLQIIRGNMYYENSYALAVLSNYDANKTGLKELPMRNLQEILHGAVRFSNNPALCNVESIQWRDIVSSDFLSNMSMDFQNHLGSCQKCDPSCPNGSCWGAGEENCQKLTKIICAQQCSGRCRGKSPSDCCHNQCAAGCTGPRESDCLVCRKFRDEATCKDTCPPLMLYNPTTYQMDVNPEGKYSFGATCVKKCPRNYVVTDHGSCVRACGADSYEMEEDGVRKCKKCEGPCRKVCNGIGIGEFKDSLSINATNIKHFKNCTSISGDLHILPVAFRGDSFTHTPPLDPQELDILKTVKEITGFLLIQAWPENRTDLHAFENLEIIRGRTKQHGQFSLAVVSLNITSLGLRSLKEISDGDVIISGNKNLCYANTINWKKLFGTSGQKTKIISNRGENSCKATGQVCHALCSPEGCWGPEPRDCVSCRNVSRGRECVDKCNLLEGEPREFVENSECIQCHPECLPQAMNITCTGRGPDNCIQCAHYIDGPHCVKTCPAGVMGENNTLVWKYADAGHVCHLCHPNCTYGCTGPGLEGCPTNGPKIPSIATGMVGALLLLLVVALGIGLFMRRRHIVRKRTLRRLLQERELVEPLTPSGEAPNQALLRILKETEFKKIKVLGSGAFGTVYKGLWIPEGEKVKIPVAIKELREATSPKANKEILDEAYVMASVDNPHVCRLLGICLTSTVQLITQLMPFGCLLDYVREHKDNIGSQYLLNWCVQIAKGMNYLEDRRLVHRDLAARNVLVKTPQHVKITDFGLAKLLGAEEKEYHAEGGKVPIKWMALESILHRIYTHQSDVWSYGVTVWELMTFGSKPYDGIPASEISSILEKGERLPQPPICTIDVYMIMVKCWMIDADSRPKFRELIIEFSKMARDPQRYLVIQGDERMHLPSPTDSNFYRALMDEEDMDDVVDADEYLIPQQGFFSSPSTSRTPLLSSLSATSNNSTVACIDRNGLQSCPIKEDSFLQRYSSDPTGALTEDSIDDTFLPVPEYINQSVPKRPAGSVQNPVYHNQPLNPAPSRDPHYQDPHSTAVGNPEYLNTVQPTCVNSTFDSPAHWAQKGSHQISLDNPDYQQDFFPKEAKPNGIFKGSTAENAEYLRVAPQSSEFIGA

IC50, < 100 nM:
Cc1nc(-c2cccc(NC(=O)c3c(F)cccc3F)c2)c(-c2ccnc(Nc3ccc(OC4CCN(C(C)C)CC4)c(F)c3)n2)s1
CN(C)CCOc1cccc(Nc2nccc(-c3scnc3-c3cccc(NC(=O)c4cc(F)ccc4F)c3)n2)c1
CN(C)CCOc1ccc(Nc2nccc(-c3sc(N)nc3-c3cc(NC(=O)c4c(F)cccc4F)ccc3F)n2)cc1Cl
Nc1nc(-c2cccc(NC(=O)C3CCCCC3)c2)c(-c2ccnc(Nc3cccc(-c4cnco4)c3)n2)s1
CC(C)c1nc(-c2cccc(NC(=O)c3c(F)cccc3F)c2)c(-c2ccnc(Nc3ccc(OCCN4CCCC4)c(Cl)c3)n2)s1
CN(C)c1nc(-c2cccc(NC(=O)c3c(F)cccc3F)c2)c(-c2ccnc(Nc3ccc(OCCN4CCCC4)nc3)n2)s1
Cc1nc(-c2cccc(NC(=O)c3cccnc3F)c2)c(-c2ccnc(Nc3ccc4c(c3)CN(C)CC4)n2)s1
Nc1nc(-c2cccc(NC(=O)c3c(F)cccc3F)c2)c(-c2ccnc(Nc3cccc(CN4CCCC4)c3)n2)s1
CCNc1nc(-c2cccc(NC(=O)c3c(F)cccc3F)c2)c(-c2ccnc(Nc3ccc(CCN4CCCC4)c(F)c3)n2)s1
COc1ccc(Nc2nccc(-c3sc(NCCN4CCOCC4)nc3-c3cccc(NC(=O)c4cc(F)ccc4F)c3)n2)cc1F
Cc1nc(-c2cccc(NC(=O)c3c(F)cccc3F)c2)c(-c2ccnc(Nc3cccc(OCCN(C)C)c3)n2)s1
Cc1nc(-c2cccc(NC(=O)c3c(F)cccc3F)c2)c(-c2ccnc(Nc3ccc(OC4CCN(C)CC4)c(F)c3)n2)s1
Cc1nc(-c2cccc(NC(=O)c3c(F)cccc3F)c2)c(-c2ccnc(Nc3ccc(OCCN(C)C)c(F)c3)n2)s1
O=C(Nc1cccc(-c2ncsc2-c2ccnc(Nc3ccc4c(c3)CNCC4)n2)c1)c1c(F)cccc1F
CN(C)CCOc1ccc(Nc2nccc(-c3sc(-c4ccc(O)cc4)nc3-c3cccc(NC(=O)c4cc(F)ccc4F)c3)n2)cc1Cl
CN(C)Cc1cccc(Nc2nccc(-c3scnc3-c3cccc(NC(=O)c4c(F)cccc4F)c3)n2)c1
O=C(Nc1cccc(-c2nc(NCCCN3CCOCC3)sc2-c2ccnc(Nc3cccc(CN4CCCC4)c3)n2)c1)c1c(F)cccc1F
CN1CCc2ccc(Nc3nccc(-c4sc(NCCCN5CCOCC5)nc4-c4cccc(NC(=O)c5c(F)cccc5F)c4)n3)cc2C1
Cc1cccc(C(=O)Nc2cccc(-c3nc(C)sc3-c3ccnc(Nc4ccc(OCCN(C)C)c(Cl)c4)n3)c2)c1
CN(C)CCCNc1ccc(Nc2nccc(-c3sc(N)nc3-c3cccc(NC(=O)C4CCCCC4)c3)n2)cc1F
Cc1nc(-c2cccc(NC(=O)c3c(F)cccc3F)c2)c(-c2ccnc(Nc3ccc(OCCN4CCCC4)c(Cl)c3)n2)s1
COc1ccccc1C(=O)Nc1cccc(-c2nc(C)sc2-c2ccnc(Nc3ccc4c(c3)CN(C)CC4)n2)c1
CCN(CC)CCOc1cccc(Nc2nccc(-c3scnc3-c3cccc(NC(=O)c4cc(F)ccc4F)c3)n2)c1
COc1ccc(Nc2nccc(-c3sc(N)nc3-c3cccc(NC(=O)c4c(F)cccc4F)c3)n2)cc1OCCN(C)C
CNc1nc(-c2cccc(NC(=O)c3cc(F)ccc3F)c2)c(-c2ccnc(Nc3ccc(OC)c(F)c3)n2)s1
CN(C)CCOc1ccc(Nc2nccc(-c3sc(N(C)C)nc3-c3cccc(NC(=O)c4c(F)cccc4F)c3)n2)cc1Cl
O=C(Nc1cccc(-c2ncsc2-c2ccnc(Nc3cccc(CN4CCCC4)c3)n2)c1)c1c(F)cccc1F
CN(C)CCCNc1ccc(Nc2nccc(-c3sc(N)nc3-c3cccc(NC(=O)c4cccn4C)c3)n2)cc1F
O=C(Nc1cccc(-c2nc(NC3CC3)sc2-c2ccnc(Nc3ccc(OCCN4CCCC4)c(F)c3)n2)c1)c1c(F)cccc1F
CN1CCc2ccc(Nc3nccc(-c4sc(C5CCNCC5)nc4-c4cccc(NC(=O)c5c(F)cccc5F)c4)n3)cc2C1
CN(C)CCOc1cccc(Nc2nccc(-c3scnc3-c3cccc(NC(=O)c4c(F)cccc4F)c3)n2)c1
CCN(CC)CCOc1cccc(Nc2nccc(-c3scnc3-c3cccc(NC(=O)Cc4cccs4)c3)n2)c1
CN(C)CCOc1ccc(Nc2nccc(-c3sc(N)nc3-c3cccc(C(=O)Nc4c(F)cccc4F)c3)n2)cc1Cl
O=C1COc2ccc(Nc3nccc(-c4scnc4-c4cccc(NC(=O)c5cc(F)ccc5F)c4)n3)cc2N1
COc1cc(Nc2nccc(-c3sc(N)nc3-c3cccc(NC(=O)c4c(F)cccc4F)c3)n2)cc(OC)c1OC
Cc1nc(-c2cccc(NC(=O)c3cc(F)ccc3F)c2)c(-c2ccnc(Nc3ccc(OCCN(C)C)c(F)c3)n2)s1
Nc1nc(-c2cccc(NC(=O)c3cc(F)ccc3F)c2)c(-c2ccnc(Nc3ccc4c(c3)CNCC4)n2)s1
CN1CCc2ccc(Nc3nccc(-c4sc(N5CCCC5)nc4-c4cccc(NC(=O)c5c(F)cccc5F)c4)n3)cc2C1
Cc1nc(-c2cccc(NC(=O)c3c(F)cccc3F)c2)c(-c2ccnc(Nc3cccc(CN4CCCC4)c3)n2)s1
CN(C)CCOc1ccc(Nc2nccc(-c3sc(N)nc3-c3cccc(NC(=O)c4c(F)cccc4F)c3)n2)cc1Cl
CN1CCc2ccc(Nc3nccc(-c4sc(N(C)C)nc4-c4cccc(NC(=O)c5c(F)cccc5F)c4)n3)cc2C1
CN(C)C1Cc2ccc(Nc3nccc(-c4scnc4-c4cccc(NC(=O)Cc5cccs5)c4)n3)cc2C1 (stereo not given)
COc1ccc(Nc2nccc(-c3sc(N)nc3-c3cccc(NC(=O)c4c(F)cccc4F)c3)n2)cc1N1CCNCC1
Nc1nc(-c2cccc(NC(=O)Cc3cccs3)c2)c(-c2ccnc(Nc3cccc(F)c3)n2)s1
Nc1nc(-c2cccc(NC(=O)c3c(F)cccc3F)c2)c(-c2ccnc(Nc3ccc4c(c3)OCC(=O)N4)n2)s1
CN(C)CCOc1ccc(Nc2nccc(-c3sc(N)nc3-c3ccc(F)c(NC(=O)c4c(F)cccc4F)c3)n2)cc1Cl
CN(C)CCOc1ccc(Nc2nccc(-c3sc(N4CCN(C)CC4)nc3-c3cccc(NC(=O)c4c(F)cccc4F)c3)n2)cc1Cl
Cc1nc(-c2cccc(NC(=O)c3cccc(Cl)c3)c2)c(-c2ccnc(Nc3ccc(OCCN(C)C)c(Cl)c3)n2)s1
CC(C)(C)c1nc(-c2cccc(NC(=O)c3c(F)cccc3F)c2)c(-c2ccnc(Nc3cccc(CN4CCCC4)c3)n2)s1
CN(C)CCOc1ccc(Nc2nccc(-c3sc(N)nc3-c3cccc(NC(=O)c4cc(F)ccc4F)c3)n2)cc1Cl
